Experimental data: patent US4743616A, “Novel biologically active compound having anti-prolyl endopeptidase activity” (Suntory Limited, priority 1984, dated 1988)

Key:
[1] = test system: experimental amnesia caused in rats by scopolamine; experiment: Preventive effect against experimental amnesia caused in rats by scopolamine (intraperitoneal administration); type: in vivo, Wister male rats; settings: for No. of amnesic rats/No. of rats tested / Percentage amnesia: scopolamine 3 mg/kg i.p., assessed 24 and 48 hours after scopolamine
Method: (§1) Several of the anti-prolyl endopeptidase compounds of the present invention were checked for their ability to prevent the inhibition of long-term memory fixation by scopolamine. Solutions of physiological saline that contained selected compounds of the present inventions in varying amounts (20 mg, 2 mg, 0.2 mg and 0.02 mg/kg) were administered intraperitoneally once a day to Wister male rats (100-120 g). One hour after the administration, electric shocks were applied to the rats so that they would acquire passive avoidance learning. Immediately thereafter, scopolamine was administered intraperitoneally to each rat in an amount of 3 mg per kg of body weight.
(§2) The result of the test was assessed both 24 hours and 48 hours after the administration of scopolamine. The number of amnesic rats and that of sound rats were counted for each of the control group (rats which were not administered the test compounds but administered intraperitoneally only scopolamine and physiological saline) and the treated group (rats which were administered both the test compound and scopolamine).

[2] = Acute toxicity test in mice; settings: mouse, in vivo, ip; single i.p. administration in DMSO/physiological saline, five mice per group, observed at 24 and 48 hours; read-out: Average dose (mg/kg) at which the group remained sound and showed no sign of intoxication
Method: The compounds of the present invention were checked for their acute toxicity in CDF-1 strain male mice (body weight: 27.2-30.1 g) purchased from Awazu Laboratory Animals Co., Ltd.
Test samples were prepared by dissolving the respective compounds in DMSO, and mixing with an equal amount of physiological saline. A portion (0.1 ml) of the so conditioned test sample was administered intraperitoneally to each of the mice used. Each of the tested groups consisted of five mice. At 24 and 48 hours of the administration, the mice were observed.

[3] = target: prolyl endopeptidase; experiment: Measurement of anti-prolyl endopeptidase activity; type: biochemical; settings: substrate Z-glycyl-proline-β-naphthylamide, phosphate buffer pH 7.0, absorbance at 410 nm
Method: The method of Yoshimoto and Tsuru (T. Yoshimoto and D. Tsuru, Agr. Biol. Chem. 42, 2417, 1978) was used to measure the anti-prolyl endopeptidase activities of several compounds of the present invention. A mixture of 0.0025M Z-glycyl-proline-β-naphthylamide (0.25 ml), 0.1M phosphate buffer (pH, 7.0; 0.99 ml) and a solution of a particular anti-prolyl endopeptidase compound (0.01 ml) was incubated in a test tube at 37° C. for 3 minutes. Thereafter, 0.1 ml of a solution of prolyl endopeptidase (0.2 U/ml) was added and the mixture was heated at 35° C. for 10 minutes. After the reaction, 2.0 ml of Triton X-100 in 1M acetate buffer (pH, 4.0 ) was added to the reaction mixture until the final concentration of the surfactant was 10%. The mixture was left at room temperature for 15 minutes and the absorance (a) at 410 nm was measured.
A sample for blind test was prepared by using the buffer instead of the anti-prolyl endopeptidase compound and its absorbance (b) was also measured. The percent inhibition of prolyl endopeptidase was calculated by the formula: ((b-a)/b)×100, and the amount of a specific compound to achieve 50% inhibition (IC50) was determined.

[4] = test system: experimental amnesia caused in rats by scopolamine; experiment: Preventive effect against experimental amnesia caused in rats by scopolamine (oral administration); type: in vivo; settings: for No. of amnesic rats/No. of rats tested / Percentage amnesia: scopolamine 3 mg/kg i.p.
Method: as §1, §2
Varying amounts (1, 5, 25 and 100 mg/kg) of the compound were administered orally to each of the rats and tested for its anti-amnesic effects by the same procedures as used in Example 9.

| SMILES | No. of amnesic rats/No. of rats tested ([1]; 0.2 mg/kg i.p.) | Percentage amnesia ([1]; 0.2 mg/kg i.p.) [%] | No. of amnesic rats/No. of rats tested ([1]; 2 mg/kg i.p.) | Percentage amnesia ([1]; 2 mg/kg i.p.) [%] | NOAEL at 48 h [2] [mg/kg] | IC50 (μg/test tube) [3] [μg/test tube] | No. of amnesic rats/No. of rats tested ([1]; 20 mg/kg i.p.) | Percentage amnesia ([1]; 20 mg/kg i.p.) [%] | No. of amnesic rats/No. of rats tested ([1]; 0.02 mg/kg i.p.) | Percentage amnesia ([1]; 0.02 mg/kg i.p.) [%] | effect in preventing amnesia (in words) ([1]; i.p. administration, Example 9) | No. of amnesic rats/No. of rats tested ([4]; 1 mg/kg p.o.) | Percentage amnesia ([4]; 1 mg/kg p.o.) [%] | No. of amnesic rats/No. of rats tested ([4]; 5 mg/kg p.o.) | Percentage amnesia ([4]; 5 mg/kg p.o.) [%] | No. of amnesic rats/No. of rats tested ([4]; 25 mg/kg p.o.) | Percentage amnesia ([4]; 25 mg/kg p.o.) [%] | No. of amnesic rats/No. of rats tested ([4]; 100 mg/kg p.o.) | Percentage amnesia ([4]; 100 mg/kg p.o.) [%] | oral amount giving the strongest anti-amnesic action ([4]; of 1, 5, 25 and 100 mg/kg administered orally to rats) [mg/kg] |
| --- | --- | --- | --- | --- | --- | --- | --- | --- | --- | --- | --- | --- | --- | --- | --- | --- | --- | --- | --- | --- |
| O=CC1CCCN1C(=O)Cc1ccccc1 (stereo not shown) [Compound No. 1] | 7/10 | 70 | 3/10 | 30 | 535 | 0.8 |  |  |  |  |  |  |  |  |  |  |  |  |  |  |
| COC(=O)[C@@H]1CCCN1C(=O)Cc1ccccc1 [Compound No. 2, N-phenylacetyl-proline methyl ester] |  |  |  |  | 535 | 200 | 7/10 | 70 |  |  |  |  |  |  |  |  |  |  |  |  |
| O=CC1CCCN1C(=O)CCc1ccccc1 (stereo not shown) [Compound No. 3, N-(3-phenylpropionyl)-prolinal] | 4/15 | 27 | 4/15 | 27 | 543 | 0.018 |  |  | 7/15 | 47 |  |  |  |  |  |  |  |  |  |  |
| COC(=O)[C@@H]1CCCN1C(=O)CCc1ccccc1 [Compound No. 4, N-(3-phenylpropionyl)-proline methyl ester] |  |  | 8/10 | 80 | 542 | 60 | 4/10 | 40 |  |  |  |  |  |  |  |  |  |  |  |  |
| O=CC1CCCN1C(=O)CCCc1ccccc1 (stereo not shown) [Compound No. 5] | 2/15 | 13 | 3/15 | 20 | 534 | 0.006 |  |  | 4/15 | 27 | particularly effective in preventing amnesia | 4/10 | 40 | 1/10 | 10 | 3/10 | 30 | 8/10 | 80 | 5 |
| COC(=O)C1CCCN1C(=O)CCCc1ccccc1 (stereo not shown) [Compound No. 6, N-(4-phenyl-n-butyryl)-proline methyl ester] | 5/10 | 50 | 3/10 | 30 | 536 | 25 |  |  |  |  |  |  |  |  |  |  |  |  |  |  |
| O=CC1CCCN1C(=O)CCCCCc1ccccc1 (stereo not shown) [Sample prepared in Example 7, N-(6-phenyl-n-caproyl)-prolinal] |  |  |  |  |  | 0.35 |  |  |  |  |  |  |  |  |  |  |  |  |  |  |
